From US9630922B2, “3-spiro-7-hydroxamic acid tetralins as HDAC inhibitors” (Forma Therapeutics, Inc., priority 2015, dated 2017)

Molecular target: T1, HDAC6 (Homo sapiens, UniProt Q9UBN7)
T1 construct: Full length human recombinant HDAC6 protein was expressed in baculoviral system; made in house; host or cells: baculoviral system
T1 sequence (Q9UBN7 1-1215): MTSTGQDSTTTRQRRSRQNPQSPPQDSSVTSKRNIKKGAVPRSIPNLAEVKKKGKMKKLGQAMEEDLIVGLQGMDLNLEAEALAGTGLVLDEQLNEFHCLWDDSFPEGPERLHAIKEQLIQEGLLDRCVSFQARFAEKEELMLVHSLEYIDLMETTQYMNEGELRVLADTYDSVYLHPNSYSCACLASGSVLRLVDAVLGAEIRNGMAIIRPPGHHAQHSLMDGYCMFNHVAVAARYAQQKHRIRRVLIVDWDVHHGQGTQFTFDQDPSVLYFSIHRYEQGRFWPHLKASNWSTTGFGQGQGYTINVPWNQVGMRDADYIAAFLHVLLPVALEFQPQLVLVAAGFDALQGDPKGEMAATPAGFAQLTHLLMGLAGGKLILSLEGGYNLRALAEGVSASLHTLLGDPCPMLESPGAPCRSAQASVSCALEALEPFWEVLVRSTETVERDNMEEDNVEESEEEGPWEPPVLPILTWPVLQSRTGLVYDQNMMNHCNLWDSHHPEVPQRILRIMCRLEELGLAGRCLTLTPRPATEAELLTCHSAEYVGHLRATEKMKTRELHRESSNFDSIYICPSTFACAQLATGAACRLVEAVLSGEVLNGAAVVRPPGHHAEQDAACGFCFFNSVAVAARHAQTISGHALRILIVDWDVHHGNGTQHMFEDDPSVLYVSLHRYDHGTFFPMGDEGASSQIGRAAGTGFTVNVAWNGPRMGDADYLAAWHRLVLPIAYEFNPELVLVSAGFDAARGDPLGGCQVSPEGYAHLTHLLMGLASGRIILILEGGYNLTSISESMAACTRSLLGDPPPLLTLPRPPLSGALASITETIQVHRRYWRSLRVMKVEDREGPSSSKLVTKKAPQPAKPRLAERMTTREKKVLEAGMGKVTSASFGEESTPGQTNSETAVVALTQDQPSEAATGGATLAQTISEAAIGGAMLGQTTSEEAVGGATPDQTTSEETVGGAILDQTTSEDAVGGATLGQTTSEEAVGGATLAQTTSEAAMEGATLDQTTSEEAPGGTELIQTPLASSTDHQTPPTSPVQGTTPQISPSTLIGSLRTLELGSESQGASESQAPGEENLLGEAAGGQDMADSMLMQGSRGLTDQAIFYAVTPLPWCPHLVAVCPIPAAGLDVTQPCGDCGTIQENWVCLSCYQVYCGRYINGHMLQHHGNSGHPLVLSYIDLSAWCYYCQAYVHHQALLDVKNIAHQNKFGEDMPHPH
Assay: In vitro Histone Deacetylase Assay (enzymatic HDAC6 electrophoretic mobility shift assay)
Format: biochemical
Conditions: full length human recombinant HDAC6, 1 nM enzyme, 2 μM peptide substrate RHKK(Ac)-NH2, 25° C.; read-out: HDAC6 activity range
Experimental: The enzymatic HDAC6 assay was performed using electrophoretic mobility shift assay. Full length human recombinant HDAC6 protein was expressed in baculoviral system and purified by affinity chromatography. The enzymatic reactions were assembled in 384 well plates in a total volume of 25 μL in a reaction buffer composing: 100 mM HEPES, pH7.5, 25 mM KCl, 0.1% bovine serum albumin, 0.01% Triton X-100, 1% DMSO (from compounds) 2 μM of the fluorescently labeled peptide substrate and enzyme. The enzyme was added at a final concentration of 1 nM. The peptide substrate RHKK(Ac)—NH2 was used. The compounds were tested at 12 concentrations spaced by 3× dilution intervals. Negative control samples (0%-inhibition in the absence of inhibitor) and positive control samples (100%-inhibition) were assembled in replicates of four in each assay plate. The reactions were incubated at 25° C. and quenched by the addition of 45 μL of termination buffer (100 mM HEPES, pH 7.5, 0.01% Triton X-100, 0.05% SDS).
The terminated assay plates were analyzed on LabChip® 3000 microfluidic electrophoresis instrument (Perkin Elmer/Caliper Life Sciences). The fluorescence intensity of the electrophoretically separated de-acetylated product and substrate peptide was measured. Activity in each sample was determined as the product to sum ratio (PSR): P/(S+P), where P is the peak height of the product peptide and S is the peak height of the substrate peptide. Percent inhibition (Pinh) is determined using the following equation:
Pinh=(PSR0%−PSRinh)/(PSR0%−PSR100%)*100, where PSRinh is the product sum ratio in the presence of inhibitor, PSR0% is the average product sum ration in the absence of inhibitor and PSR100% is the average product sum ratio in 100%-inhibition control samples. The IC50 values of inhibitors were determined by fitting the %-inhibition curves with 4 parameter dose-response model using XLfit 4 software.
As set forth in Table-31, below, IC50 values are defined as follows: IC50≦0.1 μM (+++); IC50>0.1 μM and ≦0.5 μM (++); IC50>0.5 μM (+).

IC50 | Structure (SMILES)
≤ 100 nM | COCCn1c(N2CC[C@@]3(CCc4cc(C(=O)NO)ccc4C3)C2=O)nc2ccccc21 [Compound I-13, (S)-N-hydroxy-1′-(1-(2-methoxyethyl)-1H-benzo[d]imidazol-2-yl)-2′-oxo-3,4-dihydro-1H-spiro[naphthalene-2,3′-pyrrolidine]-6-carboxamide]
> 500 nM | O=C(NO)c1ccc2c(c1)CC[C@]1(CCN(Cc3ccncc3)C1=O)C2 [Compound I-14, (R)-N-hydroxy-2′-oxo-1′-(pyridin-4-ylmethyl)-3,4-dihydro-1H-spiro[naphthalene-2,3′-pyrrolidine]-6-carboxamide]
≤ 100 nM | O=C(NO)c1ccc2c(c1)CC[C@@]1(CCN(Cc3ccncc3)C1=O)C2 [Compound I-15, (S)-N-hydroxy-2′-oxo-1′-(pyridin-4-ylmethyl)-3,4-dihydro-1H-spiro[naphthalene-2,3′-pyrrolidine]-6-carboxamide]
100 to 500 nM | O=C(NO)c1ccc2c(c1)CC[C@]1(CCN(c3ccncc3)C1=O)C2 [Compound I-16, (R)-N-hydroxy-2′-oxo-1′-(pyridin-4-yl)-3,4-dihydro-1H-spiro[naphthalene-2,3′-pyrrolidine]-6-carboxamide]
≤ 100 nM | O=C(NO)c1ccc2c(c1)CC[C@@]1(CCN(c3ccncc3)C1=O)C2 [Compound I-17, (S)-N-hydroxy-2′-oxo-1′-(pyridin-4-yl)-3,4-dihydro-1H-spiro[naphthalene-2,3′-pyrrolidine]-6-carboxamide]
≤ 100 nM | O=C(NO)c1ccc2c(c1)CC[C@]1(CCN(Cc3cccnc3)C1=O)C2 [Compound I-18, (R)-N-hydroxy-2′-oxo-1′-(pyridin-3-ylmethyl)-3,4-dihydro-1H-spiro[naphthalene-2,3′-pyrrolidine]-6-carboxamide]
≤ 100 nM | O=C(NO)c1ccc2c(c1)CC[C@@]1(CCN(Cc3cccnc3)C1=O)C2 [Compound I-19, (S)-N-hydroxy-2′-oxo-1′-(pyridin-3-ylmethyl)-3,4-dihydro-1H-spiro[naphthalene-2,3′-pyrrolidine]-6-carboxamide]
≤ 100 nM | O=C(NO)c1ccc2c(c1)CC[C@]1(CCN(c3ccccn3)C1=O)C2 [Compound I-20, (R)-N-hydroxy-2′-oxo-1′-(pyridin-2-yl)-3,4-dihydro-1H-spiro[naphthalene-2,3′-pyrrolidine]-6-carboxamide]
≤ 100 nM | O=C(NO)c1ccc2c(c1)CC[C@@]1(CCN(c3ccccn3)C1=O)C2 [Compound I-21, (S)-N-hydroxy-2′-oxo-1′-(pyridin-2-yl)-3,4-dihydro-1H-spiro[naphthalene-2,3′-pyrrolidine]-6-carboxamide]
≤ 100 nM | COCCn1c(CN2CC[C@]3(CCc4cc(C(=O)NO)ccc4C3)C2=O)nc2ccccc21 [Compound I-22, (R)-N-hydroxy-1′-((1-(2-methoxyethyl)-1H-benzo[d]imidazol-2-yl)methyl)-2′-oxo-3,4-dihydro-1H-spiro[naphthalene-2,3′-pyrrolidine]-6-carboxamide]
≤ 100 nM | COCCn1c(CN2CC[C@@]3(CCc4cc(C(=O)NO)ccc4C3)C2=O)nc2ccccc21 [Compound I-23, (S)-N-hydroxy-1′-((1-(2-methoxyethyl)-1H-benzo[d]imidazol-2-yl)methyl)-2′-oxo-3,4-dihydro-1H-spiro[naphthalene-2,3′-pyrrolidine]-6-carboxamide]
≤ 100 nM | CC(C)N1CC[C@]2(CCc3cc(C(=O)NO)ccc3C2)C1=O [Compound I-24, (R)-N-hydroxy-1′-isopropyl-2′-oxo-3,4-dihydro-1H-spiro[naphthalene-2,3′-pyrrolidine]-6-carboxamide]
≤ 100 nM | CC(C)N1CC[C@@]2(CCc3cc(C(=O)NO)ccc3C2)C1=O [Compound I-25, (S)-N-hydroxy-1′-isopropyl-2′-oxo-3,4-dihydro-1H-spiro[naphthalene-2,3′-pyrrolidine]-6-carboxamide]
≤ 100 nM | O=C(NO)c1ccc2c(c1)CC[C@]1(CCN(c3ccccc3)C1=O)C2 [Compound I-26, (R)-N-hydroxy-2′-oxo-1′-phenyl-3,4-dihydro-1H-spiro[naphthalene-2,3′-pyrrolidine]-6-carboxamide]
≤ 100 nM | O=C(NO)c1ccc2c(c1)CC[C@]1(CCNC1=O)C2 [Compound I-27, (R)-N-hydroxy-2′-oxo-3,4-dihydro-1H-spiro[naphthalene-2,3′-pyrrolidine]-6-carboxamide]
≤ 100 nM | O=C(NO)c1ccc2c(c1)CC[C@@]1(CCNC1=O)C2 [Compound I-28, (S)-N-hydroxy-2′-oxo-3,4-dihydro-1H-spiro[naphthalene-2,3′-pyrrolidine]-6-carboxamide]
≤ 100 nM | O=C(NO)c1ccc2c(c1)CC[C@@]1(CCN(c3ccccc3)C1=O)C2 [Compound I-29, (S)-N-hydroxy-2′-oxo-1′-phenyl-3,4-dihydro-1H-spiro[naphthalene-2,3′-pyrrolidine]-6-carboxamide]
≤ 100 nM | O=C(NO)c1ccc2c(c1)CC[C@]1(CCN(Cc3cnc(Cl)s3)C1=O)C2 [Compound I-30, (R)-1′-((2-chlorothiazol-5-yl)methyl)-N-hydroxy-2′-oxo-3,4-dihydro-1H-spiro[naphthalene-2,3′-pyrrolidine]-6-carboxamide]
≤ 100 nM | O=C(NO)c1ccc2c(c1)CC[C@]1(CCN(Cc3cnc(O)s3)C1=O)C2 [Compound I-31, (R)-N-hydroxy-1′-((2-hydroxythiazol-5-yl)methyl)-2′-oxo-3,4-dihydro-1H-spiro[naphthalene-2,3′-pyrrolidine]-6-carboxamide]
≤ 100 nM | CCCN1CC[C@]2(CCc3cc(C(=O)NO)ccc3C2)C1=O [Compound I-32, (R)-N-hydroxy-2′-oxo-1′-propyl-3,4-dihydro-1H-spiro[naphthalene-2,3′-pyrrolidine]-6-carboxamide]
≤ 100 nM | O=C(NO)c1ccc2c(c1)CC[C@]1(CCN(CC3CCC3)C1=O)C2 [Compound I-33, (R)-1′-(cyclobutylmethyl)-N-hydroxy-2′-oxo-3,4-dihydro-1H-spiro[naphthalene-2,3′-pyrrolidine]-6-carboxamide]
≤ 100 nM | CC(C)CCN1CC[C@]2(CCc3cc(C(=O)NO)ccc3C2)C1=O [Compound I-34]
≤ 100 nM | CC#CCN1CC[C@]2(CCc3cc(C(=O)NO)ccc3C2)C1=O [Compound I-35, (R)-1′-(but-2-yn-1-yl)-N-hydroxy-2′-oxo-3,4-dihydro-1H-spiro[naphthalene-2,3′-pyrrolidine]-6-carboxamide]
≤ 100 nM | COCCN1CC[C@]2(CCc3cc(C(=O)NO)ccc3C2)C1=O [Compound I-36, (R )-N-hydroxy-1′-(2-methoxyethyl)-2′-oxo-3,4-dihydro-1H-spiro[naphthalene-2,3′-pyrrolidine]-6-carboxamide]
≤ 100 nM | O=C(NO)c1ccc2c(c1)CC[C@]1(CCN(C/C=C/c3ccccc3)C1=O)C2 [Compound I-37, (R)-1′-cinnamyl-N-hydroxy-2′-oxo-3,4-dihydro-1H-spiro[naphthalene-2,3′-pyrrolidine]-6-carboxamide]
